Test: Pharmacokinetic (PK) study after topical application: plasma, stratum corneum, epidermis, dermis
Assay type: in vivo, Bama miniature pigs
Protocol: Twenty-four (12 per sex) male and female Bama miniature pigs were divided into 5 groups. The ointment was applied to an estimated 10% of the animal's body surface area.
Animals in group 1 and group 2 received a single topical application of sample 2A and sample 2B, respectively. Plasma, stratum corneum, epidermis, and dermis samples were collected before administration (0 hour, plasma only) and at 0.5, 1, 4, 8, 12, and 24 hours after administration.
Group 3 animals were topically administered ointment sample 2B once daily for 7 consecutive days. Plasma samples were collected on day 1 and day 7 before administration (0) and 0.5, 1, 4, 8, 12, and 24 hours after administration; and on days 3, 4, 5, and 6 before administration (0). […]
Group 5 animals received a single topical application of sample 3a (administered at 25 µL/m^2 with a concentration of 6 mg/mL), and blood and skin samples were collected before administration (0) and at 0.5, 1, 3, and 6 hours after administration. […] The homogenized samples were extracted using three volumes of acetonitrile and quantified against a standard curve utilizing an LC-MS/MS system.
The concentrations of the active pharmaceutical ingredient in plasma, stratum corneum, epidermis, and dermis samples were determined using a high-performance liquid chromatography-[…] (LC-MS/MS) method.

accumulation: exposure levels (AUC0-last and Cmax) in the stratum corneum, epidermis, and dermis (7 consecutive days of once-daily topical application of the ointment at 12 µg/cm^2, both sexes): no accumulation
Concentrations in plasma samples (all plasma samples, topical application, Bama miniature pigs): below the lower limit of quantification
SMILES: Cc1cnc(Nc2cnn(C3CC(C)(C)OC(C)(C)C3)c2)nc1-c1ccc(C(=O)NCC#N)cc1 [active pharmaceutical ingredient]
